Toxic doses and inconclusive results are not listed. Cut-off read from the data, not from the text of the source: active = T/C of 150% or more; inactive = T/C below 125%.
Tested on: L1210 leukemia ip in BDF1 mice, survival T/C
Assay: NCI In Vivo Anticancer Drug Screen. Data for tumor model L1210 Leukemia (intraperitoneal) in B6D2F1 (BDF1) mice
Settings: endpoint: mean survival time, higher = longer survival
Procedure, shortened: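 Antitumor effect is assessed in tumor-bearing animals. Survival in the compound arm is compared with a vehicle-dosed control arm and expressed as their quotient.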

[1] = dose: 100.0 mg/kg/injection, schedule: Q04DX003 (ip), vehicle: saline with Tween-80

Measured: T/C

O=C(NC1CCC(CC2CCCCC2)CC1)C(Cl)Cl (stereo not given)
inactive: dose: 100.0 mg/kg/injection, schedule: Q01DX009 (ip), vehicle: Klucel (hydroxypropylcellulose) (HPC) 91 % of control | dose: 100.0 mg/kg/injection, schedule: Q04DX003 (ip), vehicle: Klucel (hydroxypropylcellulose) (HPC) 93 % of control | dose: 200.0 mg/kg/injection, schedule: Q01DX009 (ip), vehicle: Klucel (hydroxypropylcellulose) (HPC) 93 % of control | dose: 200.0 mg/kg/injection, schedule: Q04DX003 (ip), vehicle: Klucel (hydroxypropylcellulose) (HPC) 88 % of control | dose: 400.0 mg/kg/injection, schedule: Q01DX009 (ip), vehicle: Klucel (hydroxypropylcellulose) (HPC) 91 % of control | dose: 400.0 mg/kg/injection, schedule: Q04DX003 (ip), vehicle: Klucel (hydroxypropylcellulose) (HPC) 109 % of control

CCCCCCCCCCCCCCBr
inactive: dose: 37.5 mg/kg/injection, schedule: Q01DX Z (ip), vehicle: carboxymethylcellulose (CMC) 100 % of control | dose: 75.0 mg/kg/injection, schedule: Q01DX Z (ip), vehicle: carboxymethylcellulose (CMC) 100 % of control | dose: 100.0 mg/kg/injection, schedule: Q01DX001 (ip), vehicle: Klucel (hydroxypropylcellulose) (HPC) 107 % of control | dose: 150.0 mg/kg/injection, schedule: Q01DX Z (ip), vehicle: carboxymethylcellulose (CMC) 100 % of control | dose: 200.0 mg/kg/injection, schedule: Q01DX001 (ip), vehicle: Klucel (hydroxypropylcellulose) (HPC) 98 % of control | dose: 300.0 mg/kg/injection, schedule: Q01DX Z (ip), vehicle: carboxymethylcellulose (CMC) 91 % of control | dose: 400.0 mg/kg/injection, schedule: Q01DX001 (ip), vehicle: Klucel (hydroxypropylcellulose) (HPC) 94 % of control

O=C(Nc1ccccc1)Sc1ccccc1
inactive: dose: 62.5 mg/kg/injection, schedule: Q01DX001 (ip), vehicle: Klucel (hydroxypropylcellulose) (HPC) 97 % of control

CN(Cc1ccc([N+](=O)[O-])cc1)C(=O)Nc1ccc(S(=O)(=O)F)cc1
inactive: dose: 100.0 mg/kg/injection, schedule: Q04DX003 (ip), vehicle: saline 98 % of control | dose: 200.0 mg/kg/injection, schedule: Q04DX003 (ip), vehicle: saline 101 % of control | dose: 400.0 mg/kg/injection, schedule: Q04DX003 (ip), vehicle: saline 104 % of control

NNC(=O)OC12CC3CC(CC(C3)C1)C2
inactive: dose: 25.0 mg/kg/injection, schedule: Q01DX009 (ip), vehicle: saline with Tween-80 90 % of control | dose: 50.0 mg/kg/injection, schedule: Q01DX009 (ip), vehicle: saline with Tween-80 88 % of control | dose: 100.0 mg/kg/injection, schedule: Q01DX009 (ip), vehicle: saline with Tween-80 98 % of control | [1] 94 % of control

COc1cc(C(=O)NOCc2cc3c(cc2Cl)OCO3)cc(OC)c1OC
inactive: dose: 200.0 mg/kg/injection, schedule: Q04DX003 (ip), vehicle: saline sonified 92 % of control | dose: 400.0 mg/kg/injection, schedule: Q04DX003 (ip), vehicle: saline sonified 90 % of control

S=C(Nc1ccccc1)Nc1ccc(Br)cc1
inactive: dose: 100.0 mg/kg/injection, schedule: Q04DX002 (ip), vehicle: Klucel (hydroxypropylcellulose) (HPC) 101 % of control | dose: 200.0 mg/kg/injection, schedule: Q04DX002 (ip), vehicle: Klucel (hydroxypropylcellulose) (HPC) 105 % of control | dose: 400.0 mg/kg/injection, schedule: Q04DX002 (ip), vehicle: Klucel (hydroxypropylcellulose) (HPC) 97 % of control

CNCCOC(c1ccccc1)c1ccccc1C (stereo not given)
inactive: dose: 3.12 mg/kg/injection, schedule: Q01DX009 (ip), vehicle: saline 107 % of control | dose: 5.0 mg/kg/injection, schedule: Q01DX001 (ip), vehicle: saline 103 % of control | dose: 6.25 mg/kg/injection, schedule: Q01DX009 (ip), vehicle: saline 96 % of control | dose: 10.0 mg/kg/injection, schedule: Q01DX001 (ip), vehicle: saline 100 % of control | dose: 12.5 mg/kg/injection, schedule: Q01DX009 (ip), vehicle: saline 101 % of control | dose: 20.0 mg/kg/injection, schedule: Q01DX001 (ip), vehicle: saline 105 % of control | dose: 25.0 mg/kg/injection, schedule: Q01DX009 (ip), vehicle: saline 101 % of control | dose: 25.0 mg/kg/injection, schedule: Q04DX003 (ip), vehicle: saline 94 % of control | dose: 40.0 mg/kg/injection, schedule: Q01DX001 (ip), vehicle: saline 100 % of control | dose: 50.0 mg/kg/injection, schedule: Q01DX009 (ip), vehicle: saline 106 % of control | dose: 50.0 mg/kg/injection, schedule: Q04DX003 (ip), vehicle: saline 108 % of control | dose: 80.0 mg/kg/injection, schedule: Q01DX001 (ip), vehicle: saline 103 % of control

COC(=O)C(C#N)Cc1ccccc1Cl (stereo not given)
inactive: [1] 90 % of control | dose: 200.0 mg/kg/injection, schedule: Q04DX003 (ip), vehicle: saline with Tween-80 96 % of control | dose: 400.0 mg/kg/injection, schedule: Q04DX003 (ip), vehicle: saline with Tween-80 98 % of control

CCNC(=O)NCC
inactive: dose: 50.0 mg/kg/injection, schedule: Q01DX001 (ip), vehicle: saline 109 % of control | dose: 100.0 mg/kg/injection, schedule: Q01DX001 (ip), vehicle: saline 101 % of control | dose: 200.0 mg/kg/injection, schedule: Q01DX001 (ip), vehicle: saline 103 % of control | dose: 400.0 mg/kg/injection, schedule: Q01DX001 (ip), vehicle: saline 97 % of control

Reference: PubChem BioAssay AID248 (DTP/NCI, 2004)
